Source: patent US20100076003A1, “5-OXAZOLIDIN-2-ONE SUBSTITUTED 1,3,8-TRIAZASPIRO[4.5]DECAN-4-ONE DERIVATIVES USEFUL AS ORL-1 RECEPTOR MODULATORS” (priority 2008, published 2010)

Key:
Mu (μ) opioid receptor = Mu (μ) opioid receptor (Homo sapiens, UniProt P35372); test: Filtration binding assay, mu opioid receptor, DAMGO-3H ligand
[1] = molecular target: Delta (δ) opioid receptor (Homo sapiens, UniProt P41143); test: Filtration binding assay, delta opioid receptor, DPDPE-3H ligand
[2] = molecular target: Kappa (κ) opioid receptor (Homo sapiens, UniProt P41145); test: Filtration binding assay, kappa opioid receptor, U-69,593-3H ligand
Kappa (κ) opioid receptor, sequence (P41145 whole entry): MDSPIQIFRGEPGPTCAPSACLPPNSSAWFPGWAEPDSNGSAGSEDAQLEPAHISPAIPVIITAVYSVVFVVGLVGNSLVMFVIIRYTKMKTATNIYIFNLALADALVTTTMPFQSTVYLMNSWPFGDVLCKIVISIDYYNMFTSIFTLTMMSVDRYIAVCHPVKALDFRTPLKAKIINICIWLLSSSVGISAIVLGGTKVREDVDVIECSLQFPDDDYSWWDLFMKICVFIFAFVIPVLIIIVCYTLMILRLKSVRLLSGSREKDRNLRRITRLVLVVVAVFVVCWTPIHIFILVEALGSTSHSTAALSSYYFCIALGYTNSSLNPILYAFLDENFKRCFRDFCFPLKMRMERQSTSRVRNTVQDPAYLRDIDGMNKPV

Mu (μ) opioid receptor, sequence (P35372 whole entry): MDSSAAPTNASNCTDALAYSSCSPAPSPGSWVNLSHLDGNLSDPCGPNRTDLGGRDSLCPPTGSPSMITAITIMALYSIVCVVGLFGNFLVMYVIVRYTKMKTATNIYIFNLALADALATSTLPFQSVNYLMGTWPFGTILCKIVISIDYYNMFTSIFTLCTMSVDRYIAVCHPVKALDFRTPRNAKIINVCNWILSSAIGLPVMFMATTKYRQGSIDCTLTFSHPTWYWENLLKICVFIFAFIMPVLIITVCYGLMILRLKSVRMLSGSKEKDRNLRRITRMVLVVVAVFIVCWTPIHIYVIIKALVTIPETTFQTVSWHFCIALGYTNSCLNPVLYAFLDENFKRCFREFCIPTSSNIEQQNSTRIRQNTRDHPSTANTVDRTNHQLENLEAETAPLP
Delta (δ) opioid receptor, sequence (P41143 whole entry): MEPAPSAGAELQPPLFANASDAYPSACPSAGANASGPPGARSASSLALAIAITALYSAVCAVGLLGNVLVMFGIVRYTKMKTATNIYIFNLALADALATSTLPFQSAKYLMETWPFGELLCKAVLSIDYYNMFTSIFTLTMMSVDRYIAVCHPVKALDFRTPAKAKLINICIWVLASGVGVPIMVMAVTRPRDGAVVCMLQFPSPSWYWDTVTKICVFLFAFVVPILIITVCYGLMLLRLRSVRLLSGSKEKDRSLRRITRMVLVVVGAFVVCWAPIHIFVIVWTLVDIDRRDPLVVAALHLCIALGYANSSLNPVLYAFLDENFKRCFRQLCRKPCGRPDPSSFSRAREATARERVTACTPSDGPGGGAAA

| Structure (SMILES) | Ki (Mu (μ) opioid receptor) [nM] | Ki [1] [nM] | Ki [2] [nM] |
| --- | --- | --- | --- |
| Cc1cccc2cccc(CN3CCC4(CC3)C(=O)N(C[C@H]3CN(C)C(=O)O3)CN4c3ccc(F)cc3)c12 [Compound 4, 1-(4-Fluoro-phenyl)-8-(8-methyl-naphthalen-1-ylmethyl)-3-(S)-(3-methyl-2-oxo-oxazolidin-5-ylmethyl)-1,3,8-triaza-spiro[4.5]decan-4-one] | 360 | > 5000 | 120 |
| Cc1cccc2cccc(CN3CCC4(CC3)C(=O)N(C[C@H]3CNC(=O)O3)CN4c3ccc(F)cc3)c12 [Compound 2, 1-(4-Fluoro-phenyl)-8-(8-methyl-naphthalen-1-ylmethyl)-3-(R)-(2-oxo-oxazolidin-5-ylmethyl)-1,3,8-triaza-spiro[4.5]decan-4-one] | 740 | > 5000 | 640 |
| COCCN1C[C@@H](CN2CN(c3ccc(F)cc3)C3(CCN(Cc4cccc5cccc(C)c45)CC3)C2=O)OC1=O [Compound 5, 1-(4-Fluoro-phenyl)-3-(R)-[3-(2-methoxy-ethyl)-2-oxo-oxazolidin-5-ylmethyl]-8-(8-methyl-naphthalen-1-ylmethyl)-1,3,8-triaza-spiro[4.5]decan-4-one] | 180 | > 5000 | 580 |
